# Test results: paper PMC4140855, “Production of an Attenuated Phenol-Soluble Modulin Variant Unique to the MRSA Clonal Complex 30 Increases Severity of Bloodstream Infection” (PLoS Pathogens, 2014)
# Tests used:
# Assay type in all cases: cell-based
# human erythrocytes = assay: Hemolysis; details: synthetic peptides, 37°C, 1 h, 2% erythrocytes, OD 540 nm; 2 donors, triplicate; compared to PSMα3N22Y
# Protocol: Figure 5 PSMα3N22Y has diminished cytolytic activities. (A) PMN lysis of synthetic PSMα3N22Y versus PSMα3. Data are from 2 donors, measured in triplicate each after incubation at 37°C for 1 h. […] (B) Hemolysis of synthetic PSMα3N22Y versus PSMα3. Data are from 2 donors, measured in triplicate, after incubation at 37°C for 1 h. (C, D) PMN lysis and hemolysis, respectively, of culture filtrates from PSMα3N22Y- versus PSMα3-producing strains when expressed on plasmids. pTXΔ16 is the empty control vector. The background strain in all constructs is a PSM-free USA300 strain (LACΔpsmαΔpsmβΔhld). Culture filtrates were diluted 1∶20 for the PMN lysis and 1∶2 for the hemolysis measurements. PMN lysis results are from two and hemolysis data from one donor, with three replicates measured each. (E) PMN lysis of culture filtrates from MRSA252 (252) versus 252*, in which the psmα3 gene (expressing PSMα3N22Y) on the genome was changed to express PSMα3 as present in all non-CC30 strains. […] Culture filtrates were diluted 1∶10. *, p<0.05 (paired t-test). […]
# Hemolysis assays were performed according to Wang et al. Briefly, whole blood from humans was washed twice with ice-cold DPBS. […] After incubation at 37°C for 1 h, the plates were centrifuged at 233×g at 4°C for 5 min, supernatants were collected, and the optical density was measured at 540 nm.
# human neutrophils [1] = assay: Chemotaxis of human neutrophils (transwell migration); details: synthetic peptides, all tested concentrations, three donors, quadruplicate, compared to PSMα3N22Y
# Protocol: Figure 3 PSMα3N22Y has decreased chemotactic activity toward human neutrophils. (A) Chemotaxis of human neutrophils (neutrophil migration) was measured using a transwell system with synthetic peptides at the indicated concentrations. Neutrophils were from three donors and the measurements were performed in quadruplicate. **, p<0.01; ****, p<0.0001. (B) Chemotaxis of human neutrophils tested with culture filtrates (diluted 1∶100) of strains MRSA252 (252, expressing PSMα3N22Y) and 252* (MRSA252 altered to express PSMα3); ****, p<0.0001. Data are from two donors with triplicate measurements. […]
# (§1) Human neutrophils were isolated from venous blood of healthy donors as described, [39]. Neutrophil chemotaxis and Ca^2+ flux were determined as previously described, [24]. […] Chemotaxis of neutrophils was determined using a transwell system (Costar) with analysis of neutrophil migration using fluorescence labeling. Calcium fluxes were monitored as a surrogate marker for chemotaxis since it can be measured more robustly and accurately than chemotaxis. For measurement of Ca^2+ fluxes, 5×10^6 neutrophils/ml were labeled with a fluorescent dye and analyzed with a FACScalibur (Becton Dickinson) as described. […] Measurements of 2,000 events were performed and Ca^2+ flux was expressed as relative fluorescence corrected for buffer controls. […]
# human neutrophils [2] = assay: Human neutrophil chemotaxis / Ca2+ flux with FPR1 inhibited by CHIPS; details: peptide 100 nM; CHIPS 1.4 µg/ml, 20 min pre-incubation at room temperature; three donors, quadruplicate
# Protocol: Next, we analyzed Ca^2+ flux as a general measure to test for neutrophil activation, as used in previous studies. HL60 cells stably transfected with different FPR receptor genes were used to determine which FPR receptors are differentially activated by PSMα3 versus PSMα3N22Y (Fig. 4A). […] At a peptide concentration of 100 nM, we observed a difference of ∼factor 2 in chemotactic activity comparing the two peptides when FPR1 recognition was inhibited by CHIPS, likely attributable to FPR2-mediated recognition. […]
# (A) Differential activation of FPRs by PSMα3 versus PSMα3N22Y was measured using synthetic peptides and Ca^2+ flux observed in HL60 cells stably transfected with the corresponding FPR genes as readout, using three biological and two technical replicates. The calculated Kd values are shown on the right. […]
# as §1, with “chemotaxis.” for “chemotaxis. For measurement of Ca^2+ fluxes, 5×10^6 neutrophils/ml were labeled with a fluorescent dye and analyzed with a FACScalibur (Becton Dickinson) as described.”
smiles,measurement,setting,value
CSCC[C@H](NC=O)C(=O)N[C@@H](CCC(=O)O)C(=O)N[C@@H](Cc1ccccc1)C(=O)N[C@H](C(=O)N[C@@H](C)C(=O)N[C@@H](CCCCN)C(=O)N[C@@H](CC(C)C)C(=O)N[C@@H](Cc1ccccc1)C(=O)N[C@@H](CCCCN)C(=O)N[C@@H](Cc1ccccc1)C(=O)N[C@@H](Cc1ccccc1)C(=O)N[C@@H](CCCCN)C(=O)N[C@@H](CC(=O)O)C(=O)N[C@@H](CC(C)C)C(=O)N[C@@H](CC(C)C)C(=O)NCC(=O)N[C@@H](CCCCN)C(=O)N[C@@H](Cc1ccccc1)C(=O)N[C@@H](CC(C)C)C(=O)NCC(=O)N[C@@H](CC(N)=O)C(=O)N[C@@H](CC(N)=O)C(=O)O)C(C)C [PSMα3],Cytolytic capacity toward human erythrocytes,human erythrocytes,significantly higher cytolytic capacities
same,Capacity to cause neutrophil chemotaxis,human neutrophils [1],about twice higher than that caused by PSMα3N22Y at all tested concentrations
same,"Factor of difference in chemotactic activity between the two peptides, FPR1 inhibited by CHIPS",human neutrophils [2],~2
